Experimental data published in PubChem BioAssay AID1259407 (Chemical Carcinogenesis Research Information System (CCRIS), 2018).
Activity calls are given as the source filed them. No rule for the calls is given here. Where a SMILES comes first, the peptide text is derived from it.

Tested on: CCRIS mutagenicity, Ames/micronucleus/aberration tests
Assay: CCRIS mutagenicity studies
[1] = Test System: AMES SALMONELLA TYPHIMURIUM, Strain/Indicator: TA98, Metabolic Activation: NONE, Method: STANDARD PLATE
[2] = Test System: AMES SALMONELLA TYPHIMURIUM, Strain/Indicator: TA100, Metabolic Activation: NONE, Method: STANDARD PLATE
[3] = Test System: AMES SALMONELLA TYPHIMURIUM, Strain/Indicator: TA100, Metabolic Activation: RAT, LIVER, S-9, AROCLOR 1254, Method: STANDARD PLATE
[4] = Test System: AMES SALMONELLA TYPHIMURIUM, Strain/Indicator: TA1535, Metabolic Activation: NONE, Method: STANDARD PLATE
[5] = Test System: AMES SALMONELLA TYPHIMURIUM, Strain/Indicator: TA1537, Metabolic Activation: NONE, Method: STANDARD PLATE
[6] = Test System: AMES SALMONELLA TYPHIMURIUM, Strain/Indicator: TA1537, Metabolic Activation: RAT, LIVER, S-9, AROCLOR 1254, Method: STANDARD PLATE
[7] = Test System: AMES SALMONELLA TYPHIMURIUM, Strain/Indicator: TA98, Metabolic Activation: RAT, LIVER, S-9, AROCLOR 1254, Method: STANDARD PLATE

COc1cccc2c1cc1c3c(cc4c(c32)OCO4)C(=O)N1
mutagenic call (Test System: AMES SALMONELLA TYPHIMURIUM, Strain/Indicator: D3052, Metabolic Activation: NONE, Method: STANDARD PLATE): inactive; negative
mutagenic call (Test System: AMES SALMONELLA TYPHIMURIUM, Strain/Indicator: D3052, Metabolic Activation: RAT, LIVER, S-9, PHENOBARBITAL, Method: STANDARD PLATE): inactive; negative
mutagenic call (Test System: AMES SALMONELLA TYPHIMURIUM, Strain/Indicator: G46, Metabolic Activation: NONE, Method: STANDARD PLATE): inactive; negative
mutagenic call (Test System: AMES SALMONELLA TYPHIMURIUM, Strain/Indicator: G46, Metabolic Activation: RAT, LIVER, S-9, PHENOBARBITAL, Method: STANDARD PLATE): inactive; negative
mutagenic call [1]: inactive; negative
mutagenic call (Test System: AMES SALMONELLA TYPHIMURIUM, Strain/Indicator: TA98, Metabolic Activation: RAT, LIVER, S-9, PHENOBARBITAL, Method: STANDARD PLATE): inactive; negative
mutagenic call [2]: inactive; negative
mutagenic call [3]: active; positive
mutagenic call (Test System: AMES SALMONELLA TYPHIMURIUM, Strain/Indicator: TA100, Metabolic Activation: RAT, LIVER, S-9, PHENOBARBITAL, Method: STANDARD PLATE): inactive; negative
mutagenic call [4]: inactive; negative
mutagenic call (Test System: AMES SALMONELLA TYPHIMURIUM, Strain/Indicator: TA1535, Metabolic Activation: RAT, LIVER, S-9, PHENOBARBITAL, Method: STANDARD PLATE): inactive; negative
mutagenic call [5]: inactive; negative
mutagenic call [6]: active; positive
mutagenic call (Test System: AMES SALMONELLA TYPHIMURIUM, Strain/Indicator: TA1978, Metabolic Activation: NONE, Method: STANDARD PLATE): inactive; negative
mutagenic call (Test System: AMES SALMONELLA TYPHIMURIUM, Strain/Indicator: TA1978, Metabolic Activation: RAT, LIVER, S-9, PHENOBARBITAL, Method: STANDARD PLATE): inactive; negative
mutagenic call (Test System: AMES SALMONELLA TYPHIMURIUM, Strain/Indicator: TM677/8-AZAGUANINE, Metabolic Activation: NONE, Method: SUSPENSION/PLATE): inactive; negative

Cn1c(CC(=O)OCCCl)c(C(=O)O)c2ccccc21
mutagenic call (Test System: AMES SALMONELLA TYPHIMURIUM, Strain/Indicator: TA97, Metabolic Activation: NONE, Method: STANDARD PLATE): inactive; negative
mutagenic call (Test System: AMES SALMONELLA TYPHIMURIUM, Strain/Indicator: TA97, Metabolic Activation: RAT, LIVER, S-9, AROCLOR 1254 (4%, 10%), Method: STANDARD PLATE): inactive; negative
mutagenic call [1]: active; positive
mutagenic call (Test System: AMES SALMONELLA TYPHIMURIUM, Strain/Indicator: TA98, Metabolic Activation: RAT, LIVER, S-9, AROCLOR 1254 (4%, 10%), Method: STANDARD PLATE): inactive; negative
mutagenic call [2]: inactive; negative
mutagenic call (Test System: AMES SALMONELLA TYPHIMURIUM, Strain/Indicator: TA100, Metabolic Activation: RAT, LIVER, S-9, AROCLOR 1254 (4%, 10%), Method: STANDARD PLATE): inactive; negative
mutagenic call (Test System: AMES SALMONELLA TYPHIMURIUM, Strain/Indicator: TA102, Metabolic Activation: NONE, Method: STANDARD PLATE): inactive; negative
mutagenic call (Test System: AMES SALMONELLA TYPHIMURIUM, Strain/Indicator: TA102, Metabolic Activation: RAT, LIVER, S-9, AROCLOR 1254 (4%, 10%), Method: STANDARD PLATE): inactive; negative

CC(C)CCNc1snc2ccccc12
mutagenic call [1]: inactive; negative
mutagenic call (Test System: AMES SALMONELLA TYPHIMURIUM, Strain/Indicator: TA98, Metabolic Activation: S-9, Method: STANDARD PLATE): inactive; negative
mutagenic call [2]: inactive; negative
mutagenic call (Test System: AMES SALMONELLA TYPHIMURIUM, Strain/Indicator: TA100, Metabolic Activation: S-9, Method: STANDARD PLATE): inactive; negative
mutagenic call [4]: inactive; negative
mutagenic call (Test System: AMES SALMONELLA TYPHIMURIUM, Strain/Indicator: TA1535, Metabolic Activation: S-9, Method: STANDARD PLATE): inactive; negative
mutagenic call [5]: inactive; negative
mutagenic call (Test System: AMES SALMONELLA TYPHIMURIUM, Strain/Indicator: TA1537, Metabolic Activation: S-9, Method: STANDARD PLATE): inactive; negative

O=C1c2ccccc2C(=O)c2c1cc(O)c(CO)c2O
mutagenic call (Test System: AMES SALMONELLA TYPHIMURIUM, Strain/Indicator: TA98, Metabolic Activation: NONE, Method: PREINCUBATION): active; positive
mutagenic call (Test System: AMES SALMONELLA TYPHIMURIUM, Strain/Indicator: TA98, Metabolic Activation: RAT, LIVER, S-9, AROCLOR 1254, Method: PREINCUBATION): active; positive
mutagenic call (Test System: AMES SALMONELLA TYPHIMURIUM, Strain/Indicator: TA98, Metabolic Activation: RAT, LIVER, S-9, PCB, Method: PREINCUBATION): active; positive
mutagenic call (Test System: AMES SALMONELLA TYPHIMURIUM, Strain/Indicator: TA100, Metabolic Activation: NONE, Method: PREINCUBATION): active; positive
mutagenic call (Test System: AMES SALMONELLA TYPHIMURIUM, Strain/Indicator: TA100, Metabolic Activation: RAT, LIVER, S-9, AROCLOR 1254, Method: PREINCUBATION): active; positive
mutagenic call (Test System: AMES SALMONELLA TYPHIMURIUM, Strain/Indicator: TA100, Metabolic Activation: RAT, LIVER, S-9, PCB, Method: PREINCUBATION): active; positive
mutagenic call (Test System: AMES SALMONELLA TYPHIMURIUM, Strain/Indicator: TA102, Metabolic Activation: NONE, Method: PREINCUBATION): active; positive
mutagenic call (Test System: AMES SALMONELLA TYPHIMURIUM, Strain/Indicator: TA102, Metabolic Activation: RAT, LIVER, S-9, AROCLOR 1254, Method: PREINCUBATION): active; positive
mutagenic call (Test System: AMES SALMONELLA TYPHIMURIUM, Strain/Indicator: TA102, Metabolic Activation: RAT, LIVER, S-9, Method: PREINCUBATION): active; positive
mutagenic call (Test System: AMES SALMONELLA TYPHIMURIUM, Strain/Indicator: TA104, Metabolic Activation: NONE, Method: PREINCUBATION): active; positive
mutagenic call (Test System: AMES SALMONELLA TYPHIMURIUM, Strain/Indicator: TA104, Metabolic Activation: RAT, LIVER, S-9, AROCLOR 1254, Method: PREINCUBATION): active; positive
mutagenic call (Test System: AMES SALMONELLA TYPHIMURIUM, Strain/Indicator: TA1535, Metabolic Activation: NONE, Method: PREINCUBATION): inactive; negative
mutagenic call (Test System: AMES SALMONELLA TYPHIMURIUM, Strain/Indicator: TA1535, Metabolic Activation: RAT, LIVER, S-9, AROCLOR 1254, Method: PREINCUBATION): inactive; negative
mutagenic call (Test System: AMES SALMONELLA TYPHIMURIUM, Strain/Indicator: TA1537, Metabolic Activation: NONE, Method: PREINCUBATION): active; positive
mutagenic call (Test System: AMES SALMONELLA TYPHIMURIUM, Strain/Indicator: TA1537, Metabolic Activation: RAT, LIVER, S-9, AROCLOR 1254, Method: PREINCUBATION): active; positive
mutagenic call (Test System: AMES SALMONELLA TYPHIMURIUM, Strain/Indicator: TA1537, Metabolic Activation: RAT, LIVER, S-9, Method: PREINCUBATION): active; positive
mutagenic call (Test System: AMES SALMONELLA TYPHIMURIUM, Strain/Indicator: TA1538, Metabolic Activation: NONE, Method: PREINCUBATION): active; positive
mutagenic call (Test System: AMES SALMONELLA TYPHIMURIUM, Strain/Indicator: TA1538, Metabolic Activation: RAT, LIVER, S-9, AROCLOR 1254, Method: PREINCUBATION): active; positive
mutagenic call (Test System: CHINESE HAMSTER V-79, Strain/Indicator: V-79/AZAGUANINE, Metabolic Activation: NONE, Method: STANDARD PLATE): active; positive
mutagenic call (Test System: UDS RODENT HEPATOCYTES, Strain/Indicator: THY INCORP, Metabolic Activation: NONE): active; positive

NNC(=O)CNc1ccc2ccccc2c1
mutagenic call [1]: inactive; negative
mutagenic call [7]: inactive; negative
mutagenic call [2]: inactive; negative
mutagenic call [3]: inactive; negative
mutagenic call [5]: inactive; negative
mutagenic call [6]: inactive; negative

O[C@@H]1[C@H]2O[C@H]2c2cc3c(ccc4ccccc43)cc2[C@H]1O
mutagenic call (Test System: CHINESE HAMSTER V-79, Strain/Indicator: V-79/8-AZAGUANINE, Metabolic Activation: NONE, Method: STANDARD PLATE): active; positive

NCCCC[C@H](NC(=O)[C@H](Cc1c[nH]c2ccccc12)NC(=O)[C@@H](N)CCCCN)C(=O)O (H-Lys-Trp-Lys-OH)
mutagenic call [1]: inactive; negative
mutagenic call [7]: inactive; negative
mutagenic call [2]: inactive; negative
mutagenic call [3]: inactive; negative
mutagenic call [4]: inactive; negative
mutagenic call (Test System: AMES SALMONELLA TYPHIMURIUM, Strain/Indicator: TA1535, Metabolic Activation: RAT, LIVER, S-9, AROCLOR 1254, Method: STANDARD PLATE): inactive; negative
mutagenic call [5]: inactive; negative
mutagenic call [6]: inactive; negative
